Test system: normal human photoreceptors cells
Assay: In vitro study of photoreceptor membranes exposed to oxido-reductive stress
Assay type: cell-based
Conditions: exposure to strong electron donor substances; result in words
From the text: The mitochondrial membranes are more basophilic, and they contain more unsaturated lipids than the disc membranes of the outer segments.

chlorpromazines
disc membranes: disrupted the disc membranes in dose dependent manner
structure of mitochondrial membranes: slighly altered

— patent US6417233B1, “Ubiguinone-containing composition suitable for promoting enhanced intramitochondrial transportation of ubiguinones and methods of using same” (Sigma-Tau HealthScience S.p.A., priority 1998, dated 2002)
